Experimental data: patent publication US11401271B2, “Fused heterocyclic compound, pyrazole-ring-containing fused heterocyclic compound, agricultural composition containing thereof, and method of using the composition” (SOUTH CHINA AGRICULTURAL UNIVERSITY, priority 2017, dated 2022)
Where two headings read alike, the source gives them in different places.

Tests used:
Assay in all cases: whole plant or invertebrate
Type in all cases: in vivo
[1] = test system: Plutella xylostella; conditions: for mortality at 500 ppm: Plutella xylostella, read-out: Plutella xylostella Mortality (%) 500 ppm; for Plutella xylostella Mortality (%) 500 ppm: 2nd-instar larvae, leaf immersion feeding
Protocol: (1) Insecticidal Activity on 2nd-Instar Larvae of Plutella xylostella.
Plutella xylostella (L.) is a lepidoptera pest with a chewing mouthpart and is a common vegetable pest. The 2nd-instar larvae of Plutella xylostella were used as test objects and tested by using a leaf immersion feeding method.
(§1) Operation process: Samples were weighed accurately, and respectively added with 200 μL of dimethyl sulfoxide to prepare 10 g/L mother liquor which was diluted into a concentration of 500 ppm with an aqueous solution containing 0.05% of Tween-80 during the test. A hole puncher with a diameter of 1.0 cm was used to make cleaned cabbage leaves into leaf discs. The leaf discs were immersed in a liquid medicine, taken out after 5 seconds, air-dried naturally, and transferred into a clean vessel. About 35 2nd-instar larvae of Plutella xylostella were put into the vessel and fed at a constant temperature of 28° C. Each concentration was repeated 3 times, and an aqueous solution containing 0.05% of Tween-80 was used as a control group. After being treated for 24 hours, a number of dead Plutella xylostella was counted, and a mortality (%) was calculated according to a formula that mortality (%)=(number of live larvae in the control group−number of treated live larvae)/number of live larvae in the control group*100%.

[2] = test system: Spodoptera exigua; conditions: for mortality at 500 ppm: Spodoptera exigua, 24 h, read-out: Spodoptera exigua Mortality (%) 500 ppm; for Spodoptera exigua Mortality (%) 500 ppm: 2nd-instar larvae, leaf immersion feeding, 24 hours
Protocol: (2) Insecticidal Activity on 2nd-Instar Larvae of Spodoptera exigua.
Spodoptera exigua is a lepidoptera pest with a chewing mouthpart and is a common vegetable pest. The 2nd-instar larvae of Spodoptera exigua were used as test objects and tested by using a leaf immersion feeding method.
as §1, with “μL,” for “μL”, “2nd -instar” for “2nd-instar”, “Spodoptera exigua” for “Plutella xylostella”, “group −number” for “group−number”, “group * 100%.” for “group*100%.”

[3] = test system: Aphis craccivora; conditions: for mortality at 500 ppm: Aphis craccivora, 24 h, read-out: Aphis craccivora Mortality (%) 500 ppm; for Aphis craccivora Mortality (%) 500 ppm: wingless adults, impregnation method, 24 hours
Protocol: (3) Insecticidal Activity on Aphid Adults.
Aphid is a homoptera pest with a piercing-sucking mouthpart and is a common vegetable pest. Aphis craccivora were taken as test objects and tested by using an impregnation method.
Operation process: Samples were weighed accurately, and respectively added with 200 μL of dimethyl sulfoxide to prepare 10 g/L mother liquor which was diluted into a concentration of 500 ppm with an aqueous solution containing 0.05% of Tween-80 during the test. After the wingless Aphis craccivora adults stably sucked on bean sprouts, the wingless Aphis craccivora adults together with the bean sprouts were immersed into a liquid medicine with a concentration of 500 ppm, taken out after 5 seconds, air-dried naturally, transferred into a clean vessel, and fed at a constant temperature of 23° C. Each concentration was repeated 3 times, and an aqueous solution containing 0.05% of Tween-80 was used as a control group. After being treated for 24 hours, a number of dead Aphis craccivora was counted, and a mortality (%) was calculated according to a formula that mortality (%)=(number of live Aphis craccivora in the control group−number of treated live Aphis craccivora)/number of live Aphis craccivora in the control group*100%.

[4] = test system: Solenopsis invicta; conditions: water test tube poison-feeding; for mortality at 100 ppm: Solenopsis invicta
Protocol: (4) Insecticidal Activity on Solenopsis invicta.
As a hymenoptera pests and a social insect, Solenopsis invicta is one of the most destructive invasive organisms. Solenopsis invicta were used as test objects and tested by using a water test tube poison-feeding method.
Operation process: Samples were weighed accurately, and respectively added with 200 μL of dimethyl sulfoxide to prepare 10 g/L mother liquor which was diluted into a concentration of 100 ppm with a mixed aqueous solution containing 0.05% of Tween-80 and 5% of honey during the test. […] The raising test tube was placed in a raising box horizontally, and a small amount of ham sausages were added to the raising test tube as food to raise the Solenopsis invicta at a constant temperature of 25° C. After being treated for 24 hours and 72 hours, a number of live Solenopsis invicta and a number of dead Solenopsis invicta were counted, and a mortality (%) was calculated according to a formula that mortality (%)=(number of live Solenopsis invicta in the control group−number of treated live Solenopsis invicta)/number of live Solenopsis invicta in the control group*100%.

[5] = 24 h, read-out: Solenopsis invicta Mortality (%) 100 ppm 24 h, 100 ppm, 24 h
[6] = 72 h, read-out: Solenopsis invicta Mortality (%) 100 ppm 72 h, 100 ppm, 72 h

SMILES	mortality at 500 ppm [1] [%]	mortality at 500 ppm [2] [%]	mortality at 500 ppm [3] [%]	mortality at 100 ppm [4, 5] [%]	mortality at 100 ppm [4, 6] [%]	Plutella xylostella Mortality (%) 500 ppm [1] [%]	Spodoptera exigua Mortality (%) 500 ppm [2] [%]	Aphis craccivora Mortality (%) 500 ppm [3] [%]	Solenopsis invicta Mortality (%) 100 ppm 24 h ([4]; 24 h) [%]	Solenopsis invicta Mortality (%) 100 ppm 72 h ([4]; 72 h) [%]
CC(=O)c1nn2c(c1[S+](C)[O-])NC(CO)(CC#N)c1cc(C(F)(F)F)cc(Cl)c1-2 (centres unmarked) [Compound C27]	76	86	100	27	86	–	–	–	–	–
N#CCC1(CBr)Nc2c([S+]([O-])C(F)(F)F)c(C#N)nn2-c2c(Cl)cc(C(F)(F)F)cc21 (centres unmarked) [Compound C28]	100	100	100	30	98	–	–	–	–	–
CNC(=O)C1(CC#N)Nc2c([S+]([O-])C(F)(F)F)c(C#N)nn2-c2c(Cl)cc(C(F)(F)F)cc21 (centres unmarked) [Compound C33]	100	100	100	36	100	–	–	–	–	–
CN1CCN(C(=O)C2(CC#N)Nc3c([S+]([O-])C(F)(F)F)c(C#N)nn3-c3c(Cl)cc(C(F)(F)F)cc32)CC1 (centres unmarked) [Compound C34]	100	100	100	40	100	–	–	–	–	–
COC(=O)CC1(C(=O)OC)c2cc(C(F)(F)F)cc(Cl)c2-n2nc(C#N)c([S+]([O-])C(F)(F)F)c2N1C (centres unmarked) [Compound C39]	90	100	98	24	87	–	–	–	–	–
CC(=O)c1nn2c(c1[S+](C)[O-])NC(CBr)(CC#N)c1cc(C(F)(F)F)cc(Cl)c1-2 (centres unmarked) [Compound C41]	89	94	100	19	90	–	–	–	–	–
CNCC1(CC#N)Nc2c([S+](C)[O-])c(C(C)=O)nn2-c2c(Cl)cc(C(F)(F)F)cc21 (centres unmarked) [Compound C42]	91	94	100	20	70	–	–	–	–	–
COC(=O)C1(CC#N)Nc2c([S+](C)[O-])c(C(C)=O)nn2-c2c(Cl)cc(C(F)(F)F)cc21 (centres unmarked) [Compound C44]	90	100	100	36	90	–	–	–	–	–
CC(=O)c1nn2c(c1[S+](C)[O-])NC(CC(=O)O)(C(=O)O)c1cc(C(F)(F)F)cc(Cl)c1-2 (centres unmarked) [Compound C47]	77	86	80	27	87	–	–	–	–	–
COC(=O)CC1(C(=O)OC)Nc2c([S+](C)[O-])c(C(C)=O)nn2-c2c(Cl)cc(C(F)(F)F)cc21 (centres unmarked) [Compound C48]	76	85	79	26	86	–	–	–	–	–
CC(=O)c1nn2c(c1[S+](C)[O-])NC(CC(N)=O)(C(N)=O)c1cc(C(F)(F)F)cc(Cl)c1-2 (centres unmarked) [Compound C49]	87	89	90	20	81	–	–	–	–	–
N#Cc1nn2c(c1-c1ccccc1C(F)(F)F)NC(CCl)(C(O)CO)c1cc(C(F)(F)F)cc(Cl)c1-2 (centres unmarked) [Compound C53]	78	89	90	28	97	–	–	–	–	–
Cc1cc(-c2c(C#N)nn3c2NC(C(O)CO)(C(F)(F)F)c2cc(C(F)(F)F)cc(Cl)c2-3)c(C)o1 (centres unmarked) [Compound C54]	77	78	87	17	84	–	–	–	–	–
N#Cc1nn2c(c1[S+]([O-])C(F)(F)F)NC(CCl)(C(O)CO)c1cc(C(F)(F)F)cc(Cl)c1-2 (centres unmarked) [Compound C55]	88	80	91	19	83	–	–	–	–	–
N#Cc1nn2c(c1[S+]([O-])C(F)(F)F)NC(C(O)CO)(C(F)(F)F)c1cc(C(F)(F)F)cc(Cl)c1-2 (centres unmarked) [Compound C57]	78	76	80	20	89	–	–	–	–	–
CC[S+]([O-])c1c(C#N)nn2c1NC(/C=C/C(=O)OC)(CC#N)c1cc(C(F)(F)F)cc(Cl)c1-2 (centres unmarked) [Compound C59]	100	90	100	29	100	–	–	–	–	–
COC(=O)/C=C/C1(CC#N)Nc2c([S+](C)[O-])c(C(C)=O)nn2-c2c(Cl)cc(C(F)(F)F)cc21 (centres unmarked) [Compound C60]	90	92	100	25	92	–	–	–	–	–
CCc1nn2c(c1Br)NC(/C=C\C(=O)OC)(/C=C/C(=O)OC)c1cc(C(F)(F)F)cc(Cl)c1-2 (centres unmarked) [Compound C63]	98	90	96	29	98	–	–	–	–	–
COC(=O)CC1(C(=O)OC)Nc2c([S+]([O-])C(F)(F)F)c(C#N)nn2-c2ncc(C(F)(F)F)cc21 (centres unmarked) [a-1]	–	–	–	–	–	100	100	100	20	100
COC(=O)C1(CC#N)Nc2c([S+]([O-])C(F)(F)F)c(C#N)nn2-c2ncc(C(F)(F)F)cc21 (centres unmarked) [a-2]	–	–	–	–	–	97	97	100	19	98
CCOC(=O)CC1(C(=O)OCC)Nc2c([S+]([O-])C(F)(F)F)c(C#N)nn2-c2ncc(C(F)(F)F)cc21 (centres unmarked) [a-22]	–	–	–	–	–	100	100	100	30	100
CC(=O)CC1(C(=O)C(F)(F)F)Nc2c([S+]([O-])C(F)(F)F)c(C#N)nn2-c2ncc(C(F)(F)F)cc21 (centres unmarked) [a-26]	–	–	–	–	–	100	100	100	34	100
